Reference: patent US20190119635A1, “MODULATION OF T LYMPHOCYTES” (Fate Therapeutics, Inc., priority 2015, published 2019)

System: CD3+ T-cells pre-isolated from human peripheral blood
Test: Gene expression panel of CD3+ T-cells treated with dmPGE2 (Affymetrix U133 plus 2.0 GeneChip)
Type: cell-based
Conditions: 10 μM dmPGE2, 2 hours at 37° C.; genes ATF3, CREM, GEM, CXCL2, MMP9, PLAUR, AREG, BCL2A1, DUSP4, FOS, FOSL2, JUN, MYC, NR4A2, NR4A3, SOCS1, SOCS3, ULBP2; mean of 3 donors; FIG. 1
Method: RNA was extracted from CD3+ T-cells pre-isolated from human peripheral blood (AllCells, Aiameda CA) (n=3 donors) post ex vivo treatment (2 hours at 37° C. in StemSpan-ACF (StemCell Technologies, Vancouver, Canada)) with 10 μM dmPGE2 (Fate therapeutics, San Diego, Calif.) or vehicle control (DMSO).
Following cell treatments, levels mRNA were quantitated from PicoPure isolated mRNA (Life Technologies, Carlsbad, Calif.) using Affymetrix GeneChip technology. Affymetrix U133 plus 2.0 GeneChip hybridization of all samples was performed in accordance with the manufacturer's recommendations (Affymetrix, Santa Clara, Calif.), involving roughly 200 ng of total RNA and Message Amp II (Life Technologies, Carlsbad, Calif.) standard two round amplification protocols. Probe intensities were normalized according to a log scale robust multi-array analysis (RMA) method (Affymetrix Santa Clara, Calif.). A parametric paired t-test (Benjamini-Hochberg false discovery rate <0.05, adjusted p-value/q-value <0.05, and fold change > or <2 fold) detected probes with significant changes due to the treatment with dmPGE2 and dexamethasone.
The probe intensities were converted into linear fold changes of relative expression levels of mRNA by comparison of dmPGE2 and dexamethasone treated CD3+ T-cells in comparison to the vehicle treated control samples. […]

CCCCC(C)(C)[C@H](O)/C=C/[C@H]1[C@H](O)CC(=O)[C@@H]1C/C=C\CCCC(=O)O [dmPGE2, 16,16-dimethyl PGE2]
statistically significant increase in expression (linear fold change of mRNA vs vehicle control): at least 2 fold
